The target of this assay is Solute carrier family 12 member 2 (Homo sapiens) (UniProt P55011). Nature of the assay: SLC12A2 cotransporter inhibitors, dose response, HEK-293 overexpressing cells, thallium flux (AID 1919674). The conditions noted are these: HEK-293 SLC12A2 OE, thallium flux fluorescence (FLIPR).

pIC50: −log10 of the molar value.

Solute carrier family 12 member 2 (Homo sapiens), sequence (P55011 whole entry, looked up): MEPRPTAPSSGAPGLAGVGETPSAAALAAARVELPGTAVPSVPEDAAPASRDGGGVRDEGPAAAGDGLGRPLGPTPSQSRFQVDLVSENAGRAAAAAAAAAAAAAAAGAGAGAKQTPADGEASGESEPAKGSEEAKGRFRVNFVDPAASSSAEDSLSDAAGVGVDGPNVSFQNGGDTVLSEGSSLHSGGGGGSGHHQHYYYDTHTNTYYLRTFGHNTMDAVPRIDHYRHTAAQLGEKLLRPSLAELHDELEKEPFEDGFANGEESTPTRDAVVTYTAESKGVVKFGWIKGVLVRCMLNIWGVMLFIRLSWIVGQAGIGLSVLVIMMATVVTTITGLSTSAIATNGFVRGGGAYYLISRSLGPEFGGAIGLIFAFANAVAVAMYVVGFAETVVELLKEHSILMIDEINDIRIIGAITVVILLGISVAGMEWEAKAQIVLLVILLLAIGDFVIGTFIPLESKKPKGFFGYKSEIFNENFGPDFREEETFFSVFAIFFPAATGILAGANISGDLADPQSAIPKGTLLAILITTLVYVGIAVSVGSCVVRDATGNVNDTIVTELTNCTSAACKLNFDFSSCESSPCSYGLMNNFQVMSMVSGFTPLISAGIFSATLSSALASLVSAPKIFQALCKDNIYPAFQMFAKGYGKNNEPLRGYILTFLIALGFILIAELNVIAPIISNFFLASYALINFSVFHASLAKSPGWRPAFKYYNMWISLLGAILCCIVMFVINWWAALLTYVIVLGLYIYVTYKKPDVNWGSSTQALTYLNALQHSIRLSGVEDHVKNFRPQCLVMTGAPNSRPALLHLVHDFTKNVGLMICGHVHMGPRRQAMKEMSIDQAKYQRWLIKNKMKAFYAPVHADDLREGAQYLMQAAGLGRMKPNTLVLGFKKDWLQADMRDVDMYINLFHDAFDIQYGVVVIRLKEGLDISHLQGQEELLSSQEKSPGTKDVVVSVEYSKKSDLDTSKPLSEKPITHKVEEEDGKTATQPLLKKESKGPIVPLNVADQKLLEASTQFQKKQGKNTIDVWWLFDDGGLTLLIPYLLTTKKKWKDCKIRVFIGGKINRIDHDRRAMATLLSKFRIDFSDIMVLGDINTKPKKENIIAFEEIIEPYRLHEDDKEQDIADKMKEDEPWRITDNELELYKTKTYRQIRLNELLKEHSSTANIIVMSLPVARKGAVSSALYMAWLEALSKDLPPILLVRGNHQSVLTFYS

As for `[Tl+]`, the pIC50 (in general, the negative decadic logarithm of the IC50, by convention in mol/L) was 3.22.
